Measurements from ChEMBL document CHEMBL1201862, “PubChem BioAssay data set” (2004).
Calls of active or inactive are those of the source.

Assays:
[1] = reduction of Shn3 3'UTR-driven luciferase in osteoblasts – cell-based, Clone20 osteoblasts, firefly luciferase, cherry-picked, dose response (AID 624132); format: functional;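 also: firefly luciferase luminescence from reporter carrying the Shn3 3'UTR in osteoblasts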
[2] = cells; format: functional
[3] = viability loss of HPDE-C7K cells – cell-based, fluorescence, HTS, primary screen (AID 431); format: functional; conditions: Homo sapiens
[4] = biological target: T1, Melanocortin receptor 4 (Homo sapiens, UniProt P32245); experiment: inhibitors of MC4R cAMP signaling – cell-based, TR-FRET, biased antagonists, dose response (AID 602298); format: functional;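 also: antagonist potency against agonist-stimulated cAMP production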
T1 sequence (P32245 whole entry, the tested form may be a part): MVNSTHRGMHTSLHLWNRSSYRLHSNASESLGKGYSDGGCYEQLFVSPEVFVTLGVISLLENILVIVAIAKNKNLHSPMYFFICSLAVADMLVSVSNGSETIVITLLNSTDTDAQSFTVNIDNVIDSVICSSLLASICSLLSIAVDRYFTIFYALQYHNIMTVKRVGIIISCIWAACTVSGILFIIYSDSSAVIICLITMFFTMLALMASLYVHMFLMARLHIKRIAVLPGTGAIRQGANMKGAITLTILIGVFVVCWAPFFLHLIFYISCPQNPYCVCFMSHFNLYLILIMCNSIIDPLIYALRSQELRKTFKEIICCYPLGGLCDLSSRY

[5] = biological target: T2, Estrogen receptor (Homo sapiens, UniProt P03372); experiment: ERα coactivator recruitment enhancers – biochemical, TR-FRET, ERα LBD, dose response (AID 737)
T2 sequence (P03372 whole entry): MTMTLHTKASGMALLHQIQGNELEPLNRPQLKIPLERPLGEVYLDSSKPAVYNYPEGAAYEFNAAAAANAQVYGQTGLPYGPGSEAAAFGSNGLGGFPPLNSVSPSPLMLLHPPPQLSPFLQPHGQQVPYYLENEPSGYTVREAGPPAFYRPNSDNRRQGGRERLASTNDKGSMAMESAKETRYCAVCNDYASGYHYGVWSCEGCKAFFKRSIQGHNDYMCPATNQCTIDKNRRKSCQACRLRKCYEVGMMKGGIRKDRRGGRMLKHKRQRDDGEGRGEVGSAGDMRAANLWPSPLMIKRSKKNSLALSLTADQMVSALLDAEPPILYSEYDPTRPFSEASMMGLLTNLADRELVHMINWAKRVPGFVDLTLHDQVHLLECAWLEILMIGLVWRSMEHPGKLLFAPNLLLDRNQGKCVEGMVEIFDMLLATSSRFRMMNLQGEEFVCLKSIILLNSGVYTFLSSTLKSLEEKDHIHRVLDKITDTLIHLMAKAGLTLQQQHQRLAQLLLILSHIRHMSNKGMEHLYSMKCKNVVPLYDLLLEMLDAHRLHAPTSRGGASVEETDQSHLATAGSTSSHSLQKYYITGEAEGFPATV

[6] = THP-1 cell cytotoxicity, dose response, cytotoxicity control for non-replicating M. tuberculosis project (AID 489025); format: functional
[7] = cAMP pathway inhibition in counterscreen cell line – TR-FRET cAMP detection, counter-screen for MC4R biased antagonist project, dose response (AID 602305); format: functional, cell-based;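 also: U2OS cells stimulated with forskolin near its EC80 as the cAMP inducer; potency is for inhibition of forskolin-stimulated cAMP signaling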
[8] = loss of viability in HepG2 cells – cell-based, CellTiter-Glo, cherry-picked, cytotoxicity control for Shn3 inhibitor project, dose response (AID 624134); format: functional
[9] = HPDE-C7 pancreatic duct cell viability loss – fluorescence, HTS (AID 430); format: functional, cell-based; conditions: Homo sapiens
[10] = biological target: Hexokinase HKDC1 (Homo sapiens, UniProt Q2TB90); experiment: inhibition of HKDC1 glucose phosphorylation – biochemical, W721R variant, dose response (AID 504729); format: functional
Hexokinase HKDC1, sequence (Q2TB90 whole entry): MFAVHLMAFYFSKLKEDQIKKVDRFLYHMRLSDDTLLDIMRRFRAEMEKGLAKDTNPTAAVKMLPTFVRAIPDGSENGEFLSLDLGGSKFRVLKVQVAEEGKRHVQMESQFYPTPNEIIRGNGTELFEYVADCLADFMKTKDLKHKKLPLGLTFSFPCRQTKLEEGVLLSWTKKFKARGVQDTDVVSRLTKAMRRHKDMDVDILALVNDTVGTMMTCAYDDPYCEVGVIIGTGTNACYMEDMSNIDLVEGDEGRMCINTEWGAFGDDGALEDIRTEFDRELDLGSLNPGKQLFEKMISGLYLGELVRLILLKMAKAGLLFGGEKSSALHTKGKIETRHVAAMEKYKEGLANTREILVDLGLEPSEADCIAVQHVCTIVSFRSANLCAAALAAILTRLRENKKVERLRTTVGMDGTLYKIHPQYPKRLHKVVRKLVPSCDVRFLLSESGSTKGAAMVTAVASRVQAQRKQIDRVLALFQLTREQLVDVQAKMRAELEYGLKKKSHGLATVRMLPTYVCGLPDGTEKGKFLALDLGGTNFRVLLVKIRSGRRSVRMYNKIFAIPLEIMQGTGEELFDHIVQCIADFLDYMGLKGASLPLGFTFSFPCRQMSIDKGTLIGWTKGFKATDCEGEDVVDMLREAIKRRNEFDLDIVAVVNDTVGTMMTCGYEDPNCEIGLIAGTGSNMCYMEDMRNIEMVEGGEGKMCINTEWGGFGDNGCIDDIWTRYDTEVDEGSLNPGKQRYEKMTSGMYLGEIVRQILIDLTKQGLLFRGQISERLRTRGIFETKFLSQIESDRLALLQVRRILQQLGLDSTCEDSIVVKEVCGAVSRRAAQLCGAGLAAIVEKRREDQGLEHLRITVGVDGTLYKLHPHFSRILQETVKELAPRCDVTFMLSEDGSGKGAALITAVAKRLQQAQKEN

[11] = HepG2 cell cytotoxicity, dose response, cytotoxicity control for non-replicating M. tuberculosis project (AID 489018); format: functional; conditions: Mycobacterium tuberculosis
[12] = biological target: Female germline-specific tumor suppressor gld-1 (Caenorhabditis elegans, UniProt Q17339); experiment: blockers of GLD-1/TGE RNA complex formation – biochemical, fluorescence polarization, C. elegans, dose response (AID 2802);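 also: fluorescence polarization of labeled TGE RNA bound by purified gld-1 protein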
[13] = biological target: T3, Polyadenylate-binding protein 1 (Homo sapiens, UniProt P11940); experiment: MLLE domain peptide-binding blockers, IC50 – biochemical, fluorescence polarization, FITC-PAM2 peptide, dose response (AID 602259); format: functional; conditions: read-out: IC50_Mean
T3 sequence (P11940 whole entry, the tested form may be a part): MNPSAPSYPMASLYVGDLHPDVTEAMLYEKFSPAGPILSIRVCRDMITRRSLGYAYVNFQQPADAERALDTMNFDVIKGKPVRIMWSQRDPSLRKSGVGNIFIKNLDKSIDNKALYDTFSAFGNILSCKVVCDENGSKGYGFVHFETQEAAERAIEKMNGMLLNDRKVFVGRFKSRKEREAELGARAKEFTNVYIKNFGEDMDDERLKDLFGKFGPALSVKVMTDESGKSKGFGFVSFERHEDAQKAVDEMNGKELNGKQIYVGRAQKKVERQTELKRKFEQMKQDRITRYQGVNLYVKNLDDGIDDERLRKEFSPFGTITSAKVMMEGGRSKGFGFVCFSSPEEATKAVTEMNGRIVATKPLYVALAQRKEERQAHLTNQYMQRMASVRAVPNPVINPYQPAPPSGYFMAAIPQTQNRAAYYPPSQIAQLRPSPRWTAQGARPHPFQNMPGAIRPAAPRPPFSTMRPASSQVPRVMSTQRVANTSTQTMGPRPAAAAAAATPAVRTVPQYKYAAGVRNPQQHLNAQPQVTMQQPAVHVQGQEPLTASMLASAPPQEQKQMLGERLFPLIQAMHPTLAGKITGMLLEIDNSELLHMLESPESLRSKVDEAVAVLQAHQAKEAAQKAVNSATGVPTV

[14] = biological target: Protein Rev (Human immunodeficiency virus type 1 group M subtype B (isolate HXB2)(HIV-1), UniProt P04618); experiment: blockers of HIV Rev/RRE RNA complex – biochemical, fluorescence polarization, HIV-1, dose response (AID 434976); parameters: species or system Human immunodeficiency virus 1
Protein Rev, sequence (P04618 whole entry): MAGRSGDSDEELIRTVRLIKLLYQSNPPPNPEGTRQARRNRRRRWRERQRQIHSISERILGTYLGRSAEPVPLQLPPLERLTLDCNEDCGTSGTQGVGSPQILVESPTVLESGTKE

[15] = biological target: Endoplasmic reticulum aminopeptidase 1 (Homo sapiens, UniProt Q9NZ08); experiment: inhibition of human ERAP1 enzyme activity – biochemical, cherry-pick, set 2, plate reader, dose response (AID 743314)
[16] = biological target: T3, Polyadenylate-binding protein 1; experiment: MLLE binding blockers, Cy5 peptide tracer – biochemical, fluorescence polarization, Cy5-PAM2 peptide, secondary, miRNA deadenylation inhibitor project, dose response (AID 602260); format: functional; conditions: read-out: IC50_Mean
[17] = biological target: T3, Polyadenylate-binding protein 1; experiment: PABP inhibition in translation initiation, SAR follow-up (AID 435018); format: functional
[18] = biological target: Eukaryotic translation initiation factor 4H (Homo sapiens, UniProt Q15056); experiment: inhibitors of translation initiation factor eIF4H – SAR follow-up (AID 435011); format: functional
[19] = biological target: T4, Kappa-type opioid receptor (Homo sapiens, UniProt P41145); format: functional
T4 sequence (P41145 whole entry): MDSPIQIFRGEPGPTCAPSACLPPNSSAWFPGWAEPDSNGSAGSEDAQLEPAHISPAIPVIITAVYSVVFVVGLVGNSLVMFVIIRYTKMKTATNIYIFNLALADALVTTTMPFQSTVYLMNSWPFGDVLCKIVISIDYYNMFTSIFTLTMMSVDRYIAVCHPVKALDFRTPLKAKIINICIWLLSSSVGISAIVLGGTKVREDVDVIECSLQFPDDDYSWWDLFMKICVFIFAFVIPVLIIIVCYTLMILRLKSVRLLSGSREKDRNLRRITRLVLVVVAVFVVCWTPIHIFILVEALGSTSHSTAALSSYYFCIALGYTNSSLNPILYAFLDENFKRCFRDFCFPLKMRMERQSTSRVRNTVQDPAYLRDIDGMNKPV

[20] = biological target: T4, Kappa-type opioid receptor; format: functional; remark: listed apart in the source
[21] = biological target: T5, Delta-type opioid receptor (Homo sapiens, UniProt P41143); experiment: HTS Image-Based Screen for Agonists of the DOR Receptor. [Related pubchem assays (depositor defined):AID1777, AID1786, AID2133]; format: functional
T5 sequence (P41143 whole entry): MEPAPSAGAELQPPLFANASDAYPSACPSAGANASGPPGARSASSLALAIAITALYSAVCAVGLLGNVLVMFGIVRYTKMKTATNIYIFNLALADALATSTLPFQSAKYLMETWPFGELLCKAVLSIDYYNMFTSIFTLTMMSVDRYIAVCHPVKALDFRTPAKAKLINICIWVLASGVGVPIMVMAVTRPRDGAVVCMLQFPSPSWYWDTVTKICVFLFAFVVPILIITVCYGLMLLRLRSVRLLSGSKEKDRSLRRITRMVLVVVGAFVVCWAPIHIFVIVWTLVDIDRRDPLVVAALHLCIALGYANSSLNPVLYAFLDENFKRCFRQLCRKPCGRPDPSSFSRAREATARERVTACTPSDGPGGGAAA

[22] = biological target: T5, Delta-type opioid receptor; experiment: HTS Image-Based Screen for Antagonists of the DOR Receptor. [Related pubchem assays (depositor defined):AID1777, AID1785, AID1786, AID2133]; format: functional
[23] = biological target: T1, Melanocortin receptor 4; format: functional, cell-based
[24] = biological target: Mu-type opioid receptor (Homo sapiens, UniProt P35372); experiment: HTS Image-Based Screen for Agonists of the MOR Receptor. [Related pubchem assays (depositor defined):AID1777, AID1785, AID1786, AID2133]; format: functional;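 also: imaging of beta-arrestin GFP recruitment into spots after receptor activation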
Mu-type opioid receptor, sequence (P35372 whole entry): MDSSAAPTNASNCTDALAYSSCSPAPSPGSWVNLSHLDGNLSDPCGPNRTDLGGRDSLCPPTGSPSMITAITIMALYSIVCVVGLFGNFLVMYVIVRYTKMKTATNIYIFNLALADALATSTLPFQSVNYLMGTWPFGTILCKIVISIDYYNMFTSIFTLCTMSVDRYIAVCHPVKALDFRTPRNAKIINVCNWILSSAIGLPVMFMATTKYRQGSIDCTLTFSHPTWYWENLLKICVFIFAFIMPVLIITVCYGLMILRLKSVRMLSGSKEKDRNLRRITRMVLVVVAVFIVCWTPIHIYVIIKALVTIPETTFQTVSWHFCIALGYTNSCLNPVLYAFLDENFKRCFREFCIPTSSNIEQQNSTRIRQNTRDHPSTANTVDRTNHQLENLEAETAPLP

[25] = biological target: Beta-galactosidase (Escherichia coli, UniProt Q8VNN2); experiment: detection-enzyme interference by beta-gal modulators – biochemical, E. coli enzyme, set 3, artefact control for CCR6 antagonist project, dose response (AID 504712); format: functional
Beta-galactosidase, sequence (Q8VNN2 whole entry): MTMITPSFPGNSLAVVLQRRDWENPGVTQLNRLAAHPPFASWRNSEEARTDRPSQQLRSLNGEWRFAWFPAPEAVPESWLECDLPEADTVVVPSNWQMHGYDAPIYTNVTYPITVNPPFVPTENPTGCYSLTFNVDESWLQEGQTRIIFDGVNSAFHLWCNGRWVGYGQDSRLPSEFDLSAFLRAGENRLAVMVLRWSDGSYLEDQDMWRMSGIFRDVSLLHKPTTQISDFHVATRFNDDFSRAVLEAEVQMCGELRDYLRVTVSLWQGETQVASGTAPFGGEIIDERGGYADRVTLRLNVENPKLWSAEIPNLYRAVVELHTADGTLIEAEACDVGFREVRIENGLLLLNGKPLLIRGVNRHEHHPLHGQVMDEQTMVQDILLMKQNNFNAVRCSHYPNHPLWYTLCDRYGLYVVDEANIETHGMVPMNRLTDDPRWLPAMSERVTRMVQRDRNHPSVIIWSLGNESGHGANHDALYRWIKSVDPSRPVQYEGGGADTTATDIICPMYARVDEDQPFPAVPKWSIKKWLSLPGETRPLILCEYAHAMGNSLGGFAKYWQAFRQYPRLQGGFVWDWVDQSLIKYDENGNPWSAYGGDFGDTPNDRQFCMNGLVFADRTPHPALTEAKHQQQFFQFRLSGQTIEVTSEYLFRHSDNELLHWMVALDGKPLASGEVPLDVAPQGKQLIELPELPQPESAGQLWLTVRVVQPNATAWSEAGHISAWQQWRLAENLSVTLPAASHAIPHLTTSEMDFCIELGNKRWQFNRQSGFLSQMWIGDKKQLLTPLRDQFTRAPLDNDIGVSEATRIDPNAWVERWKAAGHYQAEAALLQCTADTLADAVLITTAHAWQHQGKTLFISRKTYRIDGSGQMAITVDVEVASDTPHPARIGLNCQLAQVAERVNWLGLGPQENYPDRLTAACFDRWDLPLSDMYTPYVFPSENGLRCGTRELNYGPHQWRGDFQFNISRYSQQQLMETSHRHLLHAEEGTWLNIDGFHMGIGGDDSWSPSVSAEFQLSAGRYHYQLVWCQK

[26] = biological target: C-C chemokine receptor type 6 (Homo sapiens, UniProt P51684); experiment: antagonism of CCR6 beta-arrestin recruitment – cell-based, luminescent beta-arrestin readout, dose response (AID 504728); format: functional
C-C chemokine receptor type 6, sequence (P51684 whole entry): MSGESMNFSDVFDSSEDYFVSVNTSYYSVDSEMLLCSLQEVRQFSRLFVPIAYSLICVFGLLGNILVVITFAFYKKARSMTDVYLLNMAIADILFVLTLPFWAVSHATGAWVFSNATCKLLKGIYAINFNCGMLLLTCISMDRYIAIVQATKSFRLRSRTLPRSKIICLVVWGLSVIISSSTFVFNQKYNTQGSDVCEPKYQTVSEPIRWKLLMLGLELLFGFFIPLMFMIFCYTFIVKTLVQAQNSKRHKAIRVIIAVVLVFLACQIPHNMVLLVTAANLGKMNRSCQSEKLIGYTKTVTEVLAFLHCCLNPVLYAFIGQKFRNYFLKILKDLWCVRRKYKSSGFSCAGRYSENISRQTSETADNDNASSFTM

With CCN(CC)c1ccc2c(c1)oc(=O)c1c(Cl)cc(=O)oc12 the AC50 [1] was 2.22 µM (active), the IC50 [2] was 14.6 µM (active) and the EC50 [3] was 12.1 µM (active). The IC50 [4] was > 64.6 µM (inactive), the EC50 [5] was 14.6 µM (active) and the CC50 [6] was > 40 µM (active). For the same compound, the IC50 [7] was > 64.6 µM (inactive), the AC50 [8] was 8.09 µM (active) and the EC50 [9] was 14.2 µM (active). For the same compound, the IC50 [10] was 22.4 µM (inactive) and the CC50 [11] was 11.7 µM (active).

For Cc1c(O)ccc2cc(S(=O)(=O)c3ccccc3)c(=O)oc12, the IC50 [12] was 4.72 µM (active), the IC50 [13] was 46.7 µM (inactive) and the IC50 [14] was 14.2 µM (not active). For the same compound, the AC50 [15] was 3.32 µM (active) and the IC50 [16] was > 66 µM (inactive).

With COc1ccc(OC)c([N+]2=C3SCCCN3C(O)(c3cccs3)C2)c1 (stereo unspecified) the IC50 [17] was > 100 µM (inactive) and the IC50 [18] was > 100 µM (inactive).

For Cc1ccccc1NC(=O)c1ccc(COc2ccc3c(C)cc(=O)oc3c2)cc1, the EC50 [19] was greater than 35 µM, the EC50 [20] was 18.1 µM and the EC50 [21] was > 32 µM (inactive). The IC50 [22] was > 32 µM (inactive), the EC50 [23] was > 89.3 µM (inactive) and the EC50 [24] was > 32 µM (inactive).

With CN(C)CC1CCC/C(=C\c2ccc(OC(=O)c3ccc(Cl)cc3)cc2)C1=O (stereo unspecified) the IC50 [25] was > 66.6 µM (inactive) and the IC50 [26] was 47.6 µM (inactive).
